Source: publication PMC8781304, “Arene-Ruthenium(II) Complexes with Carbothiamidopyrazoles as a Potential Alternative for Antibiotic Resistance in Human” (Molecules, 2022)

Key:
Experiment in all cases: MIC and MBC/MFC by broth microdilution
Type in all cases: cell-based
[1] = system: Enterococcus faecalis ATCC 29212; details: E. faecalis ATCC 29212
Procedure: (§1) Reference strains of bacteria and fungi: Staphylococcus aureus ATCC 29213, Staphylococcus epidermidis ATCC 12228, Enterococcus faecalis ATCC 29212, Pseudomonas aeruginosa ATCC 25619, Proteus vulgaris ATCC 8427, and Candida albicans ATCC 10231 (Manassas, VA, USA) were used to screen the antimicrobial activity of the arene-ruthenium(II) complexes 3a-3d, NH4PF6 and selected antibiotics. The microorganisms were grown for 24 h (bacteria) or 48 h (fungi) in 35-37 °C in tryptic-soy agar (TSA; BTL Sp. z o.o., Łódź, Poland) or Sabouraud's dextrose agar (SDA; BTL Sp. z o.o., Łódź, Poland) according to nutritional requirements. Microbial suspensions at a density of about 5 × 10^5 CFU/mL were prepared in Mueller-Hinton broth (MHB; BTL Sp. z o.o., Łódź, Poland) or RPMI-1640 medium (Sigma, St. Louis, MO, USA) for bacteria and fungi, respectively. […] Louis, MO, USA). Stock solutions of the lyophilized compounds were freshly prepared in 100% DMSO (POCh, Gliwice, Poland) for the complexes, or in water for injection (Sigma, St. Louis, MO, USA) in the case of antibiotics. […] MIC and MBC/MFC were defined as the lowest concentrations of the compounds inhibiting bacterial/fungal growth or able to kill added microbial inoculum, respectively, and were evaluated as described by […] et al.. Experiments were carried out in duplicate.

[2] = system: Staphylococcus epidermidis ATCC 12228; details: S. epidermidis ATCC 12228
Procedure: as §1

[3] = system: Proteus vulgaris ATCC 8427; details: P. vulgaris ATCC 8427
Procedure: as §1

[4] = system: Candida albicans ATCC 10231; details: C. albicans ATCC 10231
Procedure: as §1

[5] = system: Staphylococcus aureus ATCC 29213; details: S. aureus ATCC 29213
Procedure: as §1

[6] = system: Pseudomonas aeruginosa ATCC 25619; details: P. aeruginosa ATCC 25619
Procedure: as §1

Work on `Cc1cc(C)[n+]2n1C(N)=[S+][Ru-]2[Cl].Cc1ccc(C(C)C)cc1.F[P-](F)(F)(F)(F)F` [Compound 3a] yielded an MBC/MFC [1] of 125 µg/mL, an MIC [1] of 125 µg/mL and an MBC/MFC [2] of 125 µg/mL. The MIC [2] was 125 µg/mL, the MBC/MFC [3] was >1000 µg/mL and the MIC [3] was >1000 µg/mL. The MBC/MFC [4] was >1000 µg/mL, the MIC [4] was 500 µg/mL and the MBC/MFC [5] was 62.5 µg/mL. For the same compound, the MIC [5] was 62.5 µg/mL, the MBC/MFC [6] was >1000 µg/mL and the MIC [6] was >1000 µg/mL.
`CCc1cc(CC)[n+]2n1C(N)=[S+][Ru-]2[Cl].Cc1ccc(C(C)C)cc1.F[P-](F)(F)(F)(F)F` [Compound 3b] gave an MBC/MFC [1] of 125 µg/mL, an MIC [1] of 62.5 µg/mL and an MBC/MFC [2] of 62.5 µg/mL. The MIC [2] was 31.2 µg/mL, the MBC/MFC [3] was >1000 µg/mL and the MIC [3] was >1000 µg/mL. For the same compound, the MBC/MFC [4] was >1000 µg/mL, the MIC [4] was 1000 µg/mL and the MBC/MFC [5] was 62.5 µg/mL. For the same compound, the MIC [5] was 62.5 µg/mL, the MBC/MFC [6] was >1000 µg/mL and the MIC [6] was >1000 µg/mL.
In the case of “[(η^6-p-cymene)Ru(1-[amino(thioxo)methyl]-5-hydroxy-3-phenyl-1H-pyrazole)PF6 [Compound 3c]”, the MBC/MFC [1] is reported as 250 µg/mL, the MIC [1] is reported as <31.2 µg/mL and the MBC/MFC [2] is reported as 31.2 µg/mL. The MIC [2] was 31.2 µg/mL, the MBC/MFC [3] was >1000 µg/mL and the MIC [3] was >1000 µg/mL. For the same compound, the MBC/MFC [4] was >1000 µg/mL, the MIC [4] was >1000 µg/mL and the MBC/MFC [5] was 31.2 µg/mL. The MIC [5] was 15.6 µg/mL, the MBC/MFC [6] was >1000 µg/mL and the MIC [6] was >1000 µg/mL.
